Values quoted from earlier work, collected in patent publication US10137135B2, “Formulations and methods for providing progestin-only contraception while minimizing adverse side effects associated therewith” (Allergan Sales, LLC, priority 2005, dated 2018).

Tested on: ovulation
Details: subdermal implants of NEA

## C#C[C@]1(OC(C)=O)CC[C@H]2[C@@H]3CCC4=CC(=O)CC[C@@H]4[C@H]3CC[C@@]21C [NEA, norethindrone acetate]
  NE levels thought to be required to consistently inhibit ovulation: 600 pg/mL
